From PubChem BioAssay (NCI)
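The compound was tested at five concentrations on cells cultured in 96-well plates, with a 48-hour exposure period. TGI is the concentration that stops growth completely.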

Key:
Assay in all cases: growth of human tumour cells (NCI), 48 h
[1] = tested on: 786-0 renal
[2] = tested on: A498 renal
[3] = tested on: A549 NSCLC
[4] = tested on: ACHN renal
[5] = tested on: BT-549 breast
[6] = tested on: CCRF-CEM leukemia
[7] = tested on: COLO 205 colon
[8] = tested on: DU-145 prostate
[9] = tested on: EKVX NSCLC
[10] = tested on: HCC-2998 colon
[11] = tested on: HCT-116 colon
[12] = tested on: HCT-15 colon
[13] = tested on: HL-60(TB) leukemia
[14] = tested on: HOP-62 NSCLC
[15] = tested on: HS 578T breast
[16] = tested on: HT29 colon
[17] = tested on: IGROV1 ovarian
[18] = tested on: K-562 leukemia
[19] = tested on: KM12 colon
[20] = tested on: LOX IMVI melanoma
[21] = tested on: MALME-3M melanoma
[22] = tested on: MCF7 breast
[23] = tested on: MDA-MB-231 breast
[24] = tested on: MDA-MB-435
[25] = tested on: MDA-N
[26] = tested on: MOLT-4 leukemia
[27] = tested on: NCI-H226 lung
[28] = tested on: NCI-H23 lung
[29] = tested on: NCI-H460 lung
[30] = tested on: NCI-H522 lung
[31] = tested on: OVCAR-8 ovarian
[32] = tested on: PC-3 prostate
[33] = tested on: RPMI-8226 leukemia
[34] = tested on: SF-268 CNS
[35] = tested on: SF-295 CNS
[36] = tested on: SF-539 CNS
[37] = tested on: SK-MEL-28 melanoma
[38] = tested on: SK-MEL-5 melanoma
[39] = tested on: SK-OV-3 ovarian
[40] = tested on: SN12C renal
[41] = tested on: SNB-19 CNS
[42] = tested on: SNB-75 CNS
[43] = tested on: SW-620 colon
[44] = tested on: T-47D breast
[45] = tested on: TK-10 renal
[46] = tested on: UACC-257 melanoma
[47] = tested on: UACC-62 melanoma
[48] = tested on: UO-31 renal
[49] = tested on: CAKI-1 renal
[50] = tested on: HOP-92 NSCLC
[51] = tested on: M14 melanoma
[52] = tested on: NCI/ADR-RES ovarian
[53] = tested on: OVCAR-3 ovarian
[54] = tested on: OVCAR-4 ovarian
[55] = tested on: OVCAR-5 ovarian
[56] = tested on: RXF 393 renal
[57] = tested on: SK-MEL-2 melanoma
[58] = tested on: U251 CNS

SMILES: CC(C)OP(=O)(c1ccccc1)c1ccc2c(c1)OCCOCCOCCOCCO2 (centres undefined)
- TGI [1]: > 100 µM
- TGI [2]: > 100 µM
- TGI [3]: > 100 µM
- TGI [4]: > 100 µM
- TGI [5]: > 100 µM
- TGI [6]: > 100 µM
- TGI [7]: > 100 µM
- TGI [8]: > 100 µM
- TGI [9]: > 100 µM
- TGI [10]: > 100 µM
- TGI [11]: > 100 µM
- TGI [12]: > 100 µM
- TGI [13]: > 100 µM
- TGI [14]: > 100 µM
- TGI [15]: > 100 µM
- TGI [16]: > 100 µM
- TGI [17]: > 100 µM
- TGI [18]: > 100 µM
- TGI [19]: > 100 µM
- TGI [20]: > 100 µM
- TGI [21]: > 100 µM
- TGI [22]: > 100 µM
- TGI [23]: > 100 µM
- TGI [24]: > 100 µM
- TGI [25]: > 100 µM
- TGI [26]: > 100 µM
- TGI [27]: > 100 µM
- TGI [28]: > 100 µM
- TGI [29]: > 100 µM
- TGI [30]: > 100 µM
- TGI [31]: > 100 µM
- TGI [32]: > 100 µM
- TGI [33]: > 100 µM
- TGI [34]: > 100 µM
- TGI [35]: > 100 µM
- TGI [36]: > 100 µM
- TGI [37]: > 100 µM
- TGI [38]: > 100 µM
- TGI [39]: > 100 µM
- TGI [40]: > 100 µM
- TGI [41]: > 100 µM
- TGI [42]: > 100 µM
- TGI [43]: > 100 µM
- TGI [44]: > 100 µM
- TGI [45]: > 100 µM
- TGI [46]: > 100 µM
- TGI [47]: > 100 µM
- TGI [48]: > 100 µM

SMILES: CC1=C[C@H](O)[C@@]2(C)[C@@H]([C@@H]1C)[C@H]1CC[C@@H]3[C@@]4(C)CC[C@H](O)C(C)(C)[C@@H]4CC[C@@]3(C)[C@]1(C)C[C@@H]2O
- TGI [1]: 28.2 µM
- TGI [3]: 26.9 µM
- TGI [5]: 45.1 µM
- TGI [49]: 36.6 µM
- TGI [6]: 40.5 µM
- TGI [7]: 37.9 µM
- TGI [8]: 31 µM
- TGI [9]: 25.6 µM
- TGI [10]: 33 µM
- TGI [11]: 25.1 µM
- TGI [12]: 41.3 µM
- TGI [14]: 33.4 µM
- TGI [50]: 29.6 µM
- TGI [15]: 55 µM
- TGI [16]: 27.1 µM
- TGI [17]: 41.2 µM
- TGI [18]: 48.2 µM
- TGI [19]: 39.2 µM
- TGI [20]: 54 µM
- TGI [51]: 31.6 µM
- TGI [21]: 40.7 µM
- TGI [23]: 35.1 µM
- TGI [24]: 39.3 µM
- TGI [25]: 29.7 µM
- TGI [26]: 34.5 µM
- TGI [27]: 45.7 µM
- TGI [28]: 45.3 µM
- TGI [29]: 33.4 µM
- TGI [30]: 38 µM
- TGI [52]: 44.5 µM
- TGI [53]: 31.4 µM
- TGI [54]: 33.7 µM
- TGI [55]: 29.4 µM
- TGI [31]: 48 µM
- TGI [32]: 35.1 µM
- TGI [56]: 34.1 µM
- TGI [34]: 25.3 µM
- TGI [35]: 31.1 µM
- TGI [57]: 38.4 µM
- TGI [37]: 34.4 µM
- TGI [38]: 30.4 µM
- TGI [39]: 35.7 µM
- TGI [40]: 29.2 µM
- TGI [41]: 30.1 µM
- TGI [43]: 47.3 µM
- TGI [44]: 28.9 µM
- TGI [45]: 36.8 µM
- TGI [58]: 35.2 µM
- TGI [46]: 34.5 µM
- TGI [47]: 35.3 µM
- TGI [48]: 33.2 µM
